The values that follow are results of earlier work, collected in the Kinase Knowledgebase extract (Sharma et al. 2016).

A word on the IC50: it is the concentration at which inhibition is half-maximal.

This data set concerns the target EGFR (UniProt P00533).

Chain of EGFR (P00533 whole entry, looked up): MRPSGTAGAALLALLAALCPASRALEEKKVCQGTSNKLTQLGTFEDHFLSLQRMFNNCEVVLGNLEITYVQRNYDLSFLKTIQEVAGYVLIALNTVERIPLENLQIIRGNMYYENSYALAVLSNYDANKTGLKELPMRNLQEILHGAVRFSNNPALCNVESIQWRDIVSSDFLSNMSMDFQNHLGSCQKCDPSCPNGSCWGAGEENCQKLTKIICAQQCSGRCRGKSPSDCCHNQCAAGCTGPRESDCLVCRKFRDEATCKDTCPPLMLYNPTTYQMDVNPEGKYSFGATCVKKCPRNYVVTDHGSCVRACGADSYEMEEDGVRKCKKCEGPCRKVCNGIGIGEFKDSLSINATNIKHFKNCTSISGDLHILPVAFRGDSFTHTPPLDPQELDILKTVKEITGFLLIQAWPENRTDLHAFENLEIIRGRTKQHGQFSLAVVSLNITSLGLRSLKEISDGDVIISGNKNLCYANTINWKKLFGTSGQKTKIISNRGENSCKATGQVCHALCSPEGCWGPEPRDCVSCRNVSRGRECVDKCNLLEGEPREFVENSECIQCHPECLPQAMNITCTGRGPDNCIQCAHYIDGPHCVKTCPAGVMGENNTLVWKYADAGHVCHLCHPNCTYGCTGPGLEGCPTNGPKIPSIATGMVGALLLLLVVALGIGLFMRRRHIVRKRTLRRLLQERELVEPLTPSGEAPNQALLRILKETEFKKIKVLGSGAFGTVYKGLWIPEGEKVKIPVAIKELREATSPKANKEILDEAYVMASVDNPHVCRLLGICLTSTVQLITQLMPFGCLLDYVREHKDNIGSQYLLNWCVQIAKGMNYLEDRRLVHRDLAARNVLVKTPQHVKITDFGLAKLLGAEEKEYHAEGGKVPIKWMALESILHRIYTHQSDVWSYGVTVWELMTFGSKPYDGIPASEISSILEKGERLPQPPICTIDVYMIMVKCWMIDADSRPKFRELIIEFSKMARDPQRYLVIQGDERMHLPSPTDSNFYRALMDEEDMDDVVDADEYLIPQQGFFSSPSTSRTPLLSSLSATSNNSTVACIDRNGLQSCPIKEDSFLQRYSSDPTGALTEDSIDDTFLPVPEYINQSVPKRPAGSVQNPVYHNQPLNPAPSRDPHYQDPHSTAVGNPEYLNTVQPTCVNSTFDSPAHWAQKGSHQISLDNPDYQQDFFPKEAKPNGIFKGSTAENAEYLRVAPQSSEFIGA

As for `COc1cc2c(Nc3cccc(Cl)c3F)ncnc2cc1OCCCN1CCN(C)CC1`, the IC50 was 76 nM.

Take `COc1cc2c(Nc3cc(F)cc(Br)c3F)ncnc2cc1OCC1CCN(C)CC1`: the IC50 is 300 nM.

As for `COc1cc2c(Nc3cccc(Cl)c3F)ncnc2cc1OCCCN1CCCC1`, the IC50 was 100 nM.

On to `c1ccc(Nc2ncnc3[nH]c4ccccc4c23)cc1`, for which the IC50 was 6920 nM.

Take `COc1cc2c(Nc3cccc(Cl)c3F)ncnc2cc1OCCC1CCN(C)CC1`: the IC50 was 300 nM.

On to `COc1cc2c(Nc3cccc(Br)c3F)ncnc2cc1OC[C@H]1CCCN(C)C1`, for which the IC50 is 100 nM.

For the compound `COc1cc2c(Nc3cccc(Br)c3F)ncnc2cc1OCCC1CCNCC1`, the IC50 was 200 nM.

For the compound `O=C(O)c1ccc(-c2cc3c(Nc4cccc(Cl)c4)ncnc3[nH]2)cc1`, the IC50 was 1 nM.

Turning to `COc1cc2c(Nc3cccc(Cl)c3F)ncnc2cc1OC[C@@H]1CCCN(C)C1`, the IC50 was 100 nM.

Take `CNc1cc2ncnc(Nc3cccc(Br)c3)c2cn1`: the IC50 was 0.1 nM.

Take `COc1cc2c(Nc3cccc(C)c3F)ncnc2cc1OCC1CCNCC1`: the IC50 is 500 nM.

Take `COc1cc2c(Nc3ccc(O)c(Cl)c3F)ncnc2cc1OCC1CCN(C)CC1`: the IC50 is 100 nM.

`COc1cc2c(Nc3cccc(Br)c3F)ncnc2cc1OCCCN1CCN(C)CC1`: the IC50 is 100 nM.

Take `CN(C)c1cc2ncnc(Nc3cccc(Br)c3)c2cn1`: the IC50 is 0.089 nM.

For the compound `NNc1cc2ncnc(Nc3cccc(Br)c3)c2cn1`, the IC50 was 7 nM.

As to `[O-][N+]1(CCCNc2cc3ncnc(Nc4cccc(Br)c4)c3cn2)CCOCC1`, the IC50 is 0.7 nM.

On to `OCC(O)C(O)C(O)C(O)CNc1cc2ncnc(Nc3cccc(Br)c3)c2cn1` (stereo unspecified), for which the IC50 was 4 nM.

As for `CNc1ncc2ncnc(Nc3cccc(Br)c3)c2n1`, the IC50 is 0.75 nM.

Consider `CNc1cc2ncnc(Nc3cccc(C)c3)c2cn1`, for which the IC50 was 1 nM.

As for `COc1cc2c(Nc3cccc(Cl)c3F)ncnc2cc1OCCN1CCOCC1`, the IC50 is 398 nM.

As to `OCCN(CCO)CCNc1cc2ncnc(Nc3cccc(Br)c3)c2cn1`, the IC50 is 9 nM.

With `COc1cc2c(Nc3cccc(Br)c3F)ncnc2cc1OC[C@@H]1CCCN(C)C1`, the IC50 was 200 nM.

Turning to `CN(CC(O)CO)c1cc2ncnc(Nc3cccc(Br)c3)c2cn1` (stereo unspecified), the IC50 was 3 nM.

With `OCCNc1cc2ncnc(Nc3cccc(Br)c3)c2cn1`, the IC50 is 0.2 nM.

Turning to `O=C(O)CCCNc1cc2ncnc(Nc3cccc(Br)c3)c2cn1`, the IC50 is 0.2 nM.

For `COc1cc2c(Nc3cccc(C)c3F)ncnc2cc1OCC1CCN(C)CC1`, the IC50 was 1000 nM.

Consider `Cc1cccc(Nc2ncnc3cc(NCCCn4ccnc4)ncc23)c1`, for which the IC50 is 3.4 nM.

Consider `CN(C)CCCCCNc1cc2ncnc(Nc3cccc(Br)c3)c2cn1`, for which the half-inhibitory concentration (IC50) is 8.3 nM.

On to `Cc1[nH]c2ncnc(NCc3cccc(Cl)c3)c2c1C`, for which the IC50 is 1070 nM.

Take `COc1cc2c(Nc3cc(F)cc(Br)c3F)ncnc2cc1OCC1CCNCC1`: the IC50 was 450 nM.

With `Oc1ccc(-c2cc3c(Nc4cccc(Cl)c4)ncnc3[nH]2)cc1`, the IC50 is 3 nM.

For `O=S(=O)(O)CCNc1cc2ncnc(Nc3cccc(Br)c3)c2cn1`, the IC50 is 1 nM.

With `COc1cc2c(Nc3ccc(O)c(C)c3F)ncnc2cc1OCC1CCN(C)CC1`, the half-inhibitory concentration (IC50) was 300 nM.

In the case of `COc1cc2c(Nc3cccc(Cl)c3F)ncnc2cc1OCCN(C)c1ccncc1`, the IC50 is 300 nM.

With `CNC(=O)c1cc2c(Nc3cccc(Cl)c3)ncnc2[nH]1`, the IC50 is 3 nM.

Turning to `COc1cc2c(Nc3cccc(C#N)c3F)ncnc2cc1OC/C=C/CN1CCCC1`, the IC50 is 794 nM.

Regarding `COc1ccc(-c2cc3c(Nc4cccc(Cl)c4)ncnc3[nH]2)cc1`, the IC50 was 15.1 nM.

In the case of `COc1cc2c(Nc3cccc(Br)c3F)ncnc2cc1OCCC1CCN(C)CC1`, the concentration for half-maximal inhibition (IC50) was 200 nM.

Consider `CN(CC(=O)O)c1cc2ncnc(Nc3cccc(Br)c3)c2cn1`, for which the IC50 was 15 nM.

In the case of `COCCOc1cc2ncnc(Nc3cccc(Cl)c3F)c2cc1OC`, the IC50 was 100 nM.

In the case of `Clc1cccc(Nc2ncnc3[nH]c(-c4ccccn4)cc23)c1`, the IC50 was 7 nM.

Regarding `COc1cc2c(Nc3cccc(Br)c3F)ncnc2cc1OCC1CCNCC1`, the IC50 was 200 nM.

As for `CN(C)CCCNc1cc2ncnc(Nc3cccc(Br)c3)c2cn1`, the half-maximal inhibitory concentration (IC50) was 8 nM.

Take `Nc1cccc(-c2cc3c(Nc4cccc(Cl)c4)ncnc3[nH]2)c1`: the IC50 is 3.9 nM.

For the compound `Brc1cccc(Nc2ncnc3cc(NCCN4CCOCC4)ncc23)c1`, the IC50 is 3 nM.

For the compound `COc1cc2c(Nc3cccc(Cl)c3F)ncnc2cc1OCCCN1CCOCC1`, the IC50 is 100 nM.

Regarding `CN(CCO)c1cc2ncnc(Nc3cccc(Br)c3)c2cn1`, the IC50 is 2 nM.

Turning to `COc1cc2c(Nc3cccc(Cl)c3F)ncnc2cc1OCC1CCNCC1`, the IC50 is 300 nM.

As for `COc1cc2c(Nc3cc(F)cc(Cl)c3F)ncnc2cc1OCC1CCN(C)CC1`, the IC50 is 450 nM.

As to `COc1cc2c(Nc3cccc(Br)c3F)ncnc2cc1OC/C=C/CN1CCCC1`, the IC50 is 100 nM.

For the compound `COc1cc2c(Nc3cc(F)cc(Cl)c3F)ncnc2cc1OCC1CCNCC1`, the IC50 was 500 nM.

As to `COc1cc2c(Nc3cccc(Cl)c3F)ncnc2cc1OC/C=C/CN1CCCC1`, the IC50 was 89 nM.

Turning to `Nc1ccc(-c2cc3c(Nc4cccc(Cl)c4)ncnc3[nH]2)cc1`, the IC50 is 3 nM.

`CN(CC(O)C(O)C(O)C(O)CO)c1cc2ncnc(Nc3cccc(Br)c3)c2cn1` (stereo unspecified): the IC50 is 3 nM.

`COc1cc2c(Nc3cccc(Cl)c3F)ncnc2cc1OCCN1CCN(C)CC1`: the IC50 was 200 nM.

In the case of `Clc1ncc2ncnc(Nc3cccc(Br)c3)c2n1`, the half-maximal inhibitory concentration (IC50) was 81 nM.
